This passage reports IC50 results from US11572371B2, “BRD4 inhibitor” (HINOVA PHARMACEUTICALS INC., priority 2017, dated 2023).

In one experiment the target is BRD2(1, 2) (Homo sapiens (Human), UniProt P25440). The experiment is described as follows: AlphaScreen binding assay, BRD2 (D1+D2). The method, then: (§1) Homogeneous time-resolved fluorescence (HTRF) was used to detect the binding of the compound to BRD4 (D1 +D2) and BRDT (D1) proteins, and the AlphaScreen method was used to detect the binding of the compound to BRD2 (D1+D2) and BRD3 (D1+D2) proteins.
Sequence of BRD2(1, 2) (P25440 65-459): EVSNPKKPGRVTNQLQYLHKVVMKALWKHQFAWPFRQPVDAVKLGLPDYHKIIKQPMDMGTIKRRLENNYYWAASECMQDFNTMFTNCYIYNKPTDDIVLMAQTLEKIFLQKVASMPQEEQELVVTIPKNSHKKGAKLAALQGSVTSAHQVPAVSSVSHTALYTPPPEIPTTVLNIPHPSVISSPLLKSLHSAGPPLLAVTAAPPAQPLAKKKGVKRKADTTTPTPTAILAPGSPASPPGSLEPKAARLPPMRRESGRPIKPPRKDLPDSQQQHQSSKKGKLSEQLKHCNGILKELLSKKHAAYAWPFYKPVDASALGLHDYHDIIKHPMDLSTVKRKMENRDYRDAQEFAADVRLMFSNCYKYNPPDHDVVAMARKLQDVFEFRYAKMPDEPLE
(§2) Compounds were screened in vitro, and each concentration of the compound was diluted to 10 different concentrations. Four proteins, BRD4 (D1 +D2), BRDT (D1), BRD2 (D1+D2) and BRD3 (D1+D2), were selected to determine their IC50 values (see Table 1).
(§3) The test compound was dissolved in dimethylsulfoxide (DMSO) and stored at a concentration of 10 mM.
(§4) 6. AlphaScreen detection step:
(§5) 1) Preparing 1-fold concentration of detection buffer
(§6) 1-fold concentration of detection buffer was prepared (modified HEPES buffer).
(§7) 2) Gradient dilution of compounds
(§8) The compound was transferred to the detection plate with an Echo autosampler for gradient dilution, so that the final concentration of dimethyl sulfoxide was 0.1%.
(§9) 3) Preparation of protein solution
(§10) The protein was dissolved in a 1-fold concentration of detection buffer.
(§11) 4) Preparation of substrate solution
(§12) The peptide was dissolved in 1-fold concentration of detection buffer to prepare a substrate solution.
(§13) 5) 5 μL protein solution was transferred to the assay plate, and 5 μL 1-fold concentration of detection buffer was placed in the negative control well.
(§14) 6) The plate was incubated at room temperature for 15 minutes.
(§15) 7) 5 μL substrate solution was added to each well to start the reaction.
(§16) 8) The plate was incubated at room temperature for 60 minutes.
(§17) 9) Acceptor and donor solutions were prepared in 1-fold concentration of assay buffer.
(§18) 15 μL acceptor and donor solution were added, respectively, and the plate was incubated at room temperature for 60 minutes without light.
(§19) 10) The end point was read in EnSpire and Alpha mode.
(§20) 11) The curve was fitted.
(§21) The experimental data were entered into an Excel file, and the equation (1) was used to get the inhibitory rate. Inh %=(Max−Signal)/(Max−Min)*100 Equation (1)
(§22) The resultant data were entered into GraphPad software, and the IC50 value was obtained using equation (2). Y=Bottom+(Top−Bottom)/(1+10^((LogIC50−X)*Hill Slope)) Equation (2)
(§23) Wherein, Y-axis is the inhibition rate, while X-axis is the compound concentration.

The target of the next experiment is BRD4(1, 2) (Homo sapiens (Human), UniProt O60885). The experiment can be described thus: HTRF binding assay, BRD4 (D1+D2). Background: In TR-FRET formats the signal depends on donor and acceptor labels being close together.
In a further experiment the target is BRD3(1, 2) (Homo sapiens (Human), UniProt Q15059). The experiment is described as follows: AlphaScreen binding assay, BRD3 (D1+D2). The method, then:
as §1, §2, §3, §4, §5, §6, §7, §8, §9, §10, §11, §12, §13, §14, §15, §16, §17, §18, §19, §20, §21, §22, §23
For orientation: Bead proximity is the source of the signal in Alpha formats.

For the next experiment, the target named is BRDT(D1) (Homo sapiens (Human), UniProt Q58F21). The experiment can be described thus: HTRF binding assay, BRDT (D1). The method, then:
as §1, §2
BRDT(D1)(Active Motif, Cat.No.31450)
as §3
5. Homogeneous Time-Resolved Fluorescence Detection Steps:
1) All compounds were gradiently diluted on Echo plate according to the arrangement of the test plate. The final concentration of DMSO was 0.1%.
2) Compounds or DMSO was transferred to a 384-well assay plate by using Echo autosampler.
3) 2× concentration of protein and peptide mixture was added to the assay plate.
4) 2× concentration of the mixed detection solution was added to the assay plate and shaken for 30 seconds.
5) The plate was incubated at room temperature for 2 hours.
6) The fluorescence signal was read on Envision microplate reader (with excitation light wavelength at 340 nm and emission light wavelength at 615 nm and 665 nm).
as §21, §22, §23

Another experiment deals with CWR22RV1 cells. The experiment is described as follows: Inhibition of CWR22RV1 cell proliferation (CCK-8). To be noted: Homo sapiens, CWR22Rv1, 144 h; cultured for 6 days, CCK-8; read-out: IC50 on CWR22RV1. It is filed as cell-based. How it is done: Test Example 2 Biological Determination of the Inhibitory Effect of the Compound on CWR22RV1 Cell Proliferation
Experimental Materials: • CWR22RV1 cell line (Cell bank of Chinese Academy of Sciences, TCHu100) • FBS (Gibco, Cat. No. 10099-141) • 0.01M PBS (Biosharp, Cat. No. 162262) • RIPM1640 (Hyclone, Cat. No. 308090.01) • Penicillin-Streptomycin (Hyclone, Cat. No. SV30010) • Cell counting kit-8(Signalway Antibody, Cat. No. CP002) • DMSO (Sigma, Cat. No. D5879) • Centrifuge Tube, 15 ml (Excell Bio, Cat. No. CS015-0001) • Cell Culture Dish, (Excell Bio, Cat. No. CS016-0128) • 96-well cell culture cluster (Corning, Cat. No. 3599)
(1) CWR22RV1 cells were subcultured with cell culture medium, and well-growth cells were inoculated in 96-well plates, with 80 μL per well. The number of cells in each well was 1500, and the plate was cultured overnight in a 37° C., 5% CO2 cell incubator.
(2) The drug was prepared as a 30 mM stock solution using dimethyl sulfoxide (DMSO). before use, the stock solution was diluted 3 times with DMSO, and then diluted by a 3 times gradient to obtain 9 concentration gradients. The compound at each concentration was further diluted 200 times with the culture solution (to ensure that the DMSO concentration in the culture system was 0.1%), and each concentration was repeated 2 wells. 20 μL of the diluted compound was added to the cell culture wells (with final concentrations of 10 μM, 3.3 μM, 1.1 μM . . . ), and gently shaked to mix. In addition, three negative control wells containing only cells and three blank control wells containing only culture medium (6 wells each containing 20 μL DMSO 200-fold diluted with culture medium) were set.
(1) After being cultured for 6 days, 10 μL CCK-8 was added to each well, and the cells were further cultured in a 5% CO2 cell incubator at 37° C. for 2.5 hours.
(2) The absorbance (OD value) was measured at 450 nm with a multifunctional microplate reader.
(3) The data were analyzed with the Dose-response-inhibition equation in the software GraphPad Prism6, and IC50 values were obtained.

Sequence of BRD3(1, 2) (Q15059 29-417): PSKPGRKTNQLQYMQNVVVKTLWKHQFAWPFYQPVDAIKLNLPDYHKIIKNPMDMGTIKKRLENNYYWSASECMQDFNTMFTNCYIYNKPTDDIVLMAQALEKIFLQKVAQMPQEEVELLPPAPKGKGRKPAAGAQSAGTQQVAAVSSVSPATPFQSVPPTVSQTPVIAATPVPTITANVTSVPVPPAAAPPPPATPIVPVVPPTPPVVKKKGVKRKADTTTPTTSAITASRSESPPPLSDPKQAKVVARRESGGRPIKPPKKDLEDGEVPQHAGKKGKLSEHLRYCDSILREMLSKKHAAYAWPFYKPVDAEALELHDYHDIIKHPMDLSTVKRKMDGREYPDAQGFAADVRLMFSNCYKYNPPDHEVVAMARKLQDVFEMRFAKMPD
Text for BRD4(1, 2): The experimental data were entered into an Excel file, and the equation (1) was used to get the inhibitory rate. Inh %=(Max−Signal)/(Max−Min)*100 Equation (1) […]

For the compound `CCc1nnc(C[C@@H]2N=C(c3ccc(Cl)cc3)c3c(sc(C)c3C)-n3c(C)nnc32)o1` [Compound 22, (S)-2-((4-(4-chlorophenyl)-2,3,9-trimethyl-6H-thieno[3,2-f][1,2,4]triazolo[4,3-a][1,4]diaza-6-yl)methyl)-5-ethyl-1,3,4-oxodiazole], the IC50 worked out at 10.8 nM on BRD2(1, 2); 25 nM at BRD4(1, 2); 21 nM at BRD3(1, 2); 46 nM on BRDT(D1); 47 nM with CWR22RV1 cells.
For the compound `Cc1sc2c(c1C)C(c1ccc(Cl)cc1)=N[C@@H](Cc1nnc(C3CC3)o1)c1nnc(C)n1-2` [Compound 20, (S)-2-((4-(4-chlorophenyl)-2,3,9-trimethyl-6H-thieno[3,2-f][1,2,4]triazolo[4,3-a][1,4]diaza-6-yl)methyl)-5-cyclopropyl-1,3,4-oxodiazole], the IC50 stood at 10.1 nM at BRD2(1, 2); 20 nM on BRD3(1, 2); 49 nM on BRDT(D1); 37 nM with CWR22RV1 cells.
As for `Cc1sc2c(c1C)C(c1ccc(Cl)cc1)=N[C@@H](Cc1nnc(C(C)C)o1)c1nnc(C)n1-2` [Compound 19, (S)-2-((4-(4-chlorophenyl)-2,3,9-trimethyl-6H-thieno[3,2-f][1,2,4]triazolo[4,3-a][1,4]diaza-6-yl)methyl)-5-isopropyl-1,3,4-oxodiazole], the IC50 amounted to 8.3 nM on BRD2(1, 2); 17 nM on BRD3(1, 2); 51 nM at BRDT(D1); 28 nM in the experiment with CWR22RV1 cells.
On to `CCOCc1nnc(C[C@@H]2N=C(c3ccc(Cl)cc3)c3c(sc(C)c3C)-n3c(C)nnc32)o1` [Compound 6, (S)-2-((4-(4-chlorophenyl)-2,3,9-trimethyl-6H-thieno[3,2-f][1,2,4]triazolo[4,3-a][1,4]diaza-6-yl)methyl)-5-(ethoxylmethyl)-1,3,4-oxodiazole], for which the IC50 on BRD2(1, 2) came out at 15 nM; on BRD3(1, 2), 20 nM; on BRDT(D1), 46 nM; in the experiment with CWR22RV1 cells, 61 nM.

The term IC50 denotes the concentration that inhibits the measured activity by half.
